Consider eight molecules from PMC11881016, “Deep‐Learning‐Based Approaches for Rational Design of Stapled Peptides With High Antimicrobial Activity and Stability” (Microbial Biotechnology, 2025).

The subject of data set [1] is Pseudomonas aeruginosa (P. aeruginosa, ATCC27853). In kind it is cell-based. The procedure:
(§1) Escherichia coli ( E. coli , ATCC25922), Klebsiella pneumoniae ( K. pneumoniae , ATCC10031), Staphylococcus aureus ( S. aureus , ATCC6538P), Pseudomonas aeruginosa ( P. aeruginosa , ATCC27853) and methicillin‐resistant Staphylococcus aureus (MRSA) were used to evaluate the antimicrobial activity of the peptides and were purchased from BeNa Culture Collection.
(§2) The MICs of the peptides in vitro were determined using the broth microdilution method with minor modifications (Wiegand et al. [2008]). Peptides were incubated with bacteria (about 5 × 10^5 CFU/mL), and PBS was used as the negative control. After 18–24 h of incubation at 37°C, the bacteria were checked for growth by recording the values at OD600, with three replicates in each group.

The test system of data set [2] is Staphylococcus aureus (S. aureus, ATCC6538P). The format is cell-based. To be noted: for MIC S. aureus: ATCC6538. As for the experimental part: as §1, §2
Data set [3] relates to Klebsiella pneumoniae (K. pneumoniae, ATCC10031). The format is cell-based. To be noted: for MIC K. pneumoniae: ATCC10031; for increase of antimicrobial activity against K. pneumoniae: stapled peptide compared to its linear peptide. The procedure:
as §1, §2

For data set [4], the system named is Escherichia coli (E. coli, ATCC25922). The format is cell-based. The procedure:
as §1, §2

In data set [5] the test system is methicillin‐resistant Staphylococcus aureus (MRSA). The format is cell-based. The conditions noted are these: for MIC MRSA: methicillin‐resistant; for increase of antibacterial activity against MRSA: stapled peptide compared to its linear peptide. As for the experimental part:
as §1, §2

For the next data set, the system named is any bacteria. Briefly: Wet experiment result (antimicrobial activity of the synthesised peptides, positive/negative). The format is cell-based. To be noted: experiment data set (Supplement S12). The source says:
Supplement MBT2-18-e70121-s002.doc, table 9 | column: Wet Exp. Result

Data set [6] in a line: Serum stability assay (residual antimicrobial activity against E. coli). In kind it is in vitro ADME, bovine. As for the experimental part:
The serum stability assay was conducted as described by Li et al. ([2020]) with minor modifications. In brief, each peptide was dissolved in PBS solution containing 25% foetal bovine serum (FBS) at a final concentration of 2048 μg/mL and diluted after incubation for 8 h. E. coli was used as the bacterium for the stability assay, and the bacterial inhibition experiment was performed according to the bacterial inhibitory activity assay. Residual activity was calculated using the following formula: Residual activity=MICbefore/MICafter
• where MICbefore represents the MICs against E. coli before incubation, and MICafter represents the MICs against E. coli after incubation for 8 h.

Converted amounts (≈) assume the structure as drawn. Where two headings read alike, the source gives them in different places. *1 amine or outer side, *2 acyl side, *3 side chain or, on linkers, in order; H or OH if unused. Where a SMILES comes first, the peptide text is derived from it. Bridges are numbered along the chain shown (N, C = ends). Where no end group is shown, it is not given here. [ ]: non-standard residue; d: D form. X1 = O=C([C@H](CCCCNCC=[*:3])N[*:1])[*:2]; Octanediyl(1,8) = C(CCCC[*:2])CCC[*:1]; X2 = C(CCCCC[*:2])CCCC[*:1]

As for `CC[C@H](C)[C@H](NC(=O)[C@@H](N)CCCNC(=N)N)C(=O)N[C@@H](CC(C)C)C(=O)N[C@@H](CCCNC(=N)N)C(=O)N[C@@H](CCCCN)C(=O)N[C@@H](CC(C)C)C(=O)N[C@@H](CCCCN)C(=O)N[C@H]1CCCCNC/C=C/CNCCCC[C@@H](C(=O)O)NC(=O)[C@H](CC(C)C)NC(=O)[C@H](Cc2ccccc2)NC(=O)[C@H](CCCNC(=N)N)NC1=O` [GAN‐P2‐3‐St] (H-RILRKLK[X1]RFL[X1]-OH; staple (E) 8-12), in data set [1], the “MIC P. aeruginosa” value came to 32 µg/mL (≈ 19.4 µM). Besides, the “MIC S. aureus” value in data set [2] stood at 2 µg/mL (≈ 1.21 µM). In data set [2] (stapled peptide compared to its linear peptide), the “increase of antimicrobial activity against S. aureus” value was 4 fold. Also, in data set [3], the “MIC K. pneumoniae” value is 1 µg/mL (≈ 0.606 µM) and the “increase of antimicrobial activity against K. pneumoniae” value (“increase … against K. pneumoniae” for short) was 2–4 fold. In data set [4], the “MIC E. coli” value stood at 16 µg/mL (≈ 9.69 µM). In addition, in data set [5], the “MIC MRSA” value was determined as 8 µg/mL (≈ 4.85 µM) and the “increase of antibacterial activity against MRSA” value (“increase … against MRSA” for short) is listed as 16 fold. Also, in the data set on any bacteria, the “Wet Exp. Result” value was “Positive”.

On to `CC[C@H](C)[C@H](NC(=O)[C@@H](N)CCCNC(=N)N)C(=O)N[C@@H](CC(C)C)C(=O)N[C@@H](CCCNC(=N)N)C(=O)N[C@@H](CCCCN)C(=O)N[C@@H](CC(C)C)C(=O)N[C@@H](CCCNC(=N)N)C(=O)N[C@H]1CCCCNC/C=C/CNCCCC[C@@H](C(=O)O)NC(=O)[C@H](CC(C)C)NC(=O)[C@H](Cc2ccccc2)NC(=O)[C@H](CCCNC(=N)N)NC1=O` [GAN‐P2‐4‐St] (H-RILRKLR[X1]RFL[X1]-OH; staple (E) 8-12), for which, in data set [1], the “MIC P. aeruginosa” value was determined as 16 µg/mL (≈ 9.53 µM). In addition, the “MIC S. aureus” value in data set [2] was determined as 4 µg/mL (≈ 2.38 µM). In data set [3], the “MIC K. pneumoniae” value worked out at 2 µg/mL (≈ 1.19 µM) and the “increase … against K. pneumoniae” value is on record as 2–4 fold. Further, in data set [4], the “MIC E. coli” value worked out at 16 µg/mL (≈ 9.53 µM). Further, in data set [5], the “MIC MRSA” value was found to be 16 µg/mL (≈ 9.53 µM) and the “increase … against MRSA” value is reported as 4 fold. Also, in the data set on any bacteria, the “Wet Exp. Result” value is “Positive”.

On to `CC[C@H](C)[C@H](NC(=O)CN)C(=O)NCC(=O)N[C@@H](CCCCN)C(=O)N[C@@H](Cc1ccccc1)C(=O)N[C@@H](CC(C)C)C(=O)N[C@@H](Cc1c[nH]cn1)C(=O)N[C@@H](CO)C(=O)N[C@@H](C)C(=O)N[C@@H](CCCCN)C(=O)N[C@@H](CCCCN)C(=O)N[C@@H](Cc1ccccc1)C(=O)NCC(=O)N[C@@H](CCCCN)C(=O)N[C@@H](C)C(=O)N[C@@H](Cc1ccccc1)C(=O)N[C@H](C(=O)N[C@H]1CSSC[C@@H](C(=O)N[C@@H](CO)C(=O)O)NC(=O)[C@H](CC(C)C)NC(=O)[C@H]([C@@H](C)CC)NC(=O)[C@H](CCC(=O)O)NC1=O)C(C)C` [Mag2(i + 4)17Dc] (H-GIGKFLHSAKKFGKAFVCEILCS-OH; disulfide 18-22), for which the “MIC P. aeruginosa” value in data set [1] came to 64 µg/mL. In data set [2], the “MIC S. aureus” value worked out at 8 µg/mL. In addition, the “MIC K. pneumoniae” value in data set [3] was 16 µg/mL. For the same molecule, the “MIC E. coli” value in data set [4] is 16 µg/mL. Moreover, the “residual antimicrobial activity after incubation in 25% serum (in words)” value in data set [6] is “significantly decreased”.

Consider `CC[C@H](C)[C@H](NC(=O)[C@H](CCC(=O)O)NC(=O)CNC(=O)[C@@H](NC(=O)[C@H](Cc1ccccc1)NC(=O)[C@H](C)NC(=O)[C@H](CCCCN)NC(=O)CNC(=O)[C@H](Cc1ccccc1)NC(=O)[C@H](CCCCN)NC(=O)[C@H](CCCCN)NC(=O)[C@H](C)NC(=O)[C@H](CO)NC(=O)[C@H](Cc1c[nH]cn1)NC(=O)[C@H](CC(C)C)NC(=O)[C@@H]1CSCCCCCCCCSC[C@H](N)C(=O)N[C@@H]([C@@H](C)CC)C(=O)NCC(=O)N[C@@H](CCCCN)C(=O)N1)C(C)C)C(=O)N[C@@H](CC(C)C)C(=O)N[C@@H](CC(N)=O)C(=O)N[C@@H](CO)C(=O)O` [Mag(i + 4)0St] (H-CIGKCLHSAKKFGKAFVGEILNS-OH; linker 1-5 via Octanediyl(1,8); N-terminus and C-terminus assumed), for which the “MIC P. aeruginosa” value in data set [1] stood at 32 µg/mL. Also, the “MIC S. aureus” value in data set [2] stood at 32 µg/mL. In data set [3], the “MIC K. pneumoniae” value turned out to be 16 µg/mL. The “MIC E. coli” value in data set [4] amounted to 4 µg/mL. In the data set with any bacteria, the “Wet Exp. Result” value is reported as “Positive”. The “decrease of residual antimicrobial activity after incubation in 25% serum” value in data set [6] is given as “approximately 50%”.

Take `CC[C@H](C)[C@H](NC(=O)CN)C(=O)NCC(=O)N[C@@H](CCCCN)C(=O)N[C@@H](Cc1ccccc1)C(=O)N[C@@H](CC(C)C)C(=O)N[C@@H](Cc1c[nH]cn1)C(=O)N[C@@H](CO)C(=O)N[C@@H](C)C(=O)N[C@@H](CCCCN)C(=O)N[C@@H](CCCCN)C(=O)N[C@H]1CSCCCCCCCCCCSC[C@@H](C(=O)N[C@H](C(=O)N[C@@H](CC(C)C)C(=O)N[C@@H](CC(N)=O)C(=O)N[C@@H](CO)C(=O)O)[C@@H](C)CC)NC(=O)CNC(=O)[C@H](C(C)C)NC(=O)[C@H](Cc2ccccc2)NC(=O)[C@H](C)NC(=O)[C@H](CCCCN)NC(=O)CNC1=O` [Mag(i + 7)11St] (H-GIGKFLHSAKKCGKAFVGCILNS-OH; linker 12-19 via X2): in data set [1], the “MIC P. aeruginosa” value was 32 µg/mL. Besides, in data set [2], the “MIC S. aureus” value amounted to 2 µg/mL. Also, the “MIC K. pneumoniae” value in data set [3] was found to be 8 µg/mL. For the same molecule, in data set [4], the “MIC E. coli” value was 16 µg/mL. Moreover, the “Wet Exp. Result” value in the data set on any bacteria is “Positive”. The “residual antimicrobial activity after incubation in 25% serum (in words)” value in data set [6] was “remained unchanged”.

As to `CC[C@H](C)[C@H](NC(=O)[C@H](CCCNC(=N)N)NC(=O)[C@H](CCCCN)NC(=O)[C@@H](N)Cc1c[nH]c2ccccc12)C(=O)N[C@@H](C)C(=O)N[C@H]1CCCCNC/C=C/CNCCCC[C@@H](C(=O)N[C@@H](CCCCN)C(=O)N[C@@H](CC(C)C)C(=O)NCC(=O)N[C@@H](CCCNC(=N)N)C(=O)N[C@@H](C)C(=O)N[C@@H](CCCCN)C(=O)N[C@@H](CC(C)C)C(=O)N[C@@H](Cc2ccccc2)C(=O)O)NC(=O)[C@H](CCCCN)NC(=O)[C@H](CC(C)C)NC(=O)[C@H](CCCNC(=N)N)NC1=O` [VAE‐P3‐3‐St] (H-WKRIA[X1]RLK[X1]KLGRAKLF-OH; staple (E) 6-10), in data set [1], the “MIC P. aeruginosa” value worked out at 16 µg/mL (≈ 6.98 µM). Moreover, the “MIC S. aureus” value in data set [2] is 4 µg/mL (≈ 1.74 µM). Further, in data set [3], the “MIC K. pneumoniae” value was found to be 1 µg/mL (≈ 0.436 µM) and the “increase … against K. pneumoniae” value is recorded as 2–4 fold. Also, the “MIC E. coli” value in data set [4] came to 16 µg/mL (≈ 6.98 µM). Also, in data set [5], the “MIC MRSA” value was 4 µg/mL (≈ 1.74 µM) and the “increase … against MRSA” value was 4 fold. Further, the “Wet Exp. Result” value in the data set on any bacteria is reported as “Positive”.

For the molecule `CC[C@H](C)[C@H](NC(=O)[C@H](CCCNC(=N)N)NC(=O)[C@H](CCCCN)NC(=O)[C@@H](N)Cc1c[nH]c2ccccc12)C(=O)N[C@@H](C)C(=O)N[C@@H](CCCNC(=N)N)C(=O)N[C@H]1CCCCNC/C=C/CNCCCC[C@@H](C(=O)N[C@@H](CC(C)C)C(=O)NCC(=O)N[C@@H](CCCNC(=N)N)C(=O)N[C@@H](C)C(=O)N[C@@H](CCCCN)C(=O)N[C@@H](CC(C)C)C(=O)N[C@@H](Cc2ccccc2)C(=O)O)NC(=O)[C@H](CCCNC(=N)N)NC(=O)[C@H](CCCCN)NC(=O)[C@H](CC(C)C)NC1=O` [VAE‐P3‐5‐St] (H-WKRIAR[X1]LKR[X1]LGRAKLF-OH; staple (E) 7-11), the “MIC P. aeruginosa” value in data set [1] is 32 µg/mL (≈ 13.8 µM). Further, the “MIC S. aureus” value in data set [2] worked out at 4 µg/mL (≈ 1.72 µM). The “MIC K. pneumoniae” value in data set [3] is 4 µg/mL (≈ 1.72 µM). Also, the “MIC E. coli” value in data set [4] is 16 µg/mL (≈ 6.89 µM). Also, the “MIC MRSA” value in data set [5] stood at 16 µg/mL (≈ 6.89 µM). Moreover, the “Wet Exp. Result” value in the data set with any bacteria is given as “Positive”.

Regarding “GIGKFLHSAKKFGKAFVGEIMNS [Mag2, magainin II, reference compound]”, the “residual antimicrobial activity after incubation in 25% serum (in words)” value in data set [6] (25% foetal bovine serum, 8 h, MIC against E. coli, Figure 7L) is reported as “significantly decreased”.
